Measured values from ChEMBL document CHEMBL2440082, “New non-symmetrical choline kinase inhibitors” (Bioorg Med Chem, 2013).
Calls of active or inactive are those of the source. No cut-off for these calls is given here.

Experiments:
[1] = species: Homo sapiens; test: Inhibition of human ChoK activity assessed as inhibition of incorporation of [14C] from methyl[14C]choline into phosphocholine at 50 uM after 20 mins by scintillation counting
[2] = tested on: HepG2; test: Antiproliferative activity against human HepG2 cells at 1 uM after 24 hrs by crystal violet-staining assay; format: functional
[3] = tested on: HepG2; test: Antiproliferative activity against human HepG2 cells at 5 uM after 24 hrs by crystal violet-staining assay; format: functional
[4] = species: Homo sapiens; test: Inhibition of human ChoK activity assessed as inhibition of incorporation of [14C] from methyl[14C]choline into phosphocholine at 10 uM after 20 mins by scintillation counting
[5] = tested on: HepG2; test: Antiproliferative activity against human HepG2 cells at 50 uM after 24 hrs by crystal violet-staining assay; format: functional
[6] = tested on: HepG2; test: Antiproliferative activity against human HepG2 cells at 10 uM after 24 hrs by crystal violet-staining assay; format: functional
[7] = Inhibition of human ChoK activity assessed as inhibition of incorporation of [14C] from methyl[14C]choline into phosphocholine after 20 mins by scintillation counting
[8] = tested on: HepG2; test: Cytotoxicity against human HepG2 cells at 50 uM after 24 hrs by crystal violet-staining assay; format: cell-based; settings: hepg2, 24 h
[9] = tested on: HepG2; test: Cytotoxicity against human HepG2 cells at 10 uM after 24 hrs by crystal violet-staining assay; format: cell-based; settings: hepg2, 24 h

SMILES	inhibition [1]	inhibition [4]	IC50 [7]	Activity [2]	Activity [3]	Activity [5]	Activity [6]	Activity [8]	Activity [9]
CN(C)c1cc[n+](Cc2ccc(-c3ccc(COc4cccc(N)c4)cc3)cc2)cc1.[Br-]	79.8%	54.4%	6.37 µM	8.5%	16.23%	–	24.4%	Toxic	–
CN(C)c1cc[n+](Cc2ccc(-c3ccc(Cn4cnc(N)c5ncnc4-5)cc3)cc2)cc1.[Br-]	71.4%	62.3%	–	–	–	7%	10%	–	–
CN(C)c1cc[n+](Cc2ccc(CCCCc3ccc(CNc4cccc(O)c4)cc3)cc2)cc1.[Br-]	12.9%	3.8%	–	4.58%	13.09%	71.1%	30.86%	–	–
CN(C)c1cc[n+](Cc2ccc(CCCCc3ccc(COc4cccc(N)c4)cc3)cc2)cc1.[Br-]	inactive	inactive	–	10.14%	18.32%	46.67%	22.68%	–	–
CN(C)c1cc[n+](Cc2ccc(COc3cccc(N)c3)cc2)cc1.[Br-]	37.7%	14.8%	–	inactive	inactive	22.48%	inactive	–	–
CN(C)c1cc[n+](Cc2ccc(CNc3cccc(O)c3)cc2)cc1.[Br-]	52.4%	27.5%	–	7.74%	13.01%	54.51%	24.38%	–	–
CN(C)c1cc[n+](Cc2ccc(CCCCc3ccc(Cn4cnc5c(N)ncnc54)cc3)cc2)cc1.[Br-]	89.7%	66.7%	–	–	–	45.5%	10.2%	–	–
CN(C)c1cc[n+](Cc2ccc(CCc3ccc(COc4cccc(N)c4)cc3)cc2)cc1.[Br-]	21.9%	inactive	–	7.42%	6.98%	59.54%	30.53%	–	–

Now from value to compound, other results behind:

inhibition [1]	inhibition [4]	IC50 [7]	SMILES	Activity [2]	Activity [3]	Activity [5]	Activity [6]	Activity [8]	Activity [9]
41.3%	inactive	–	Oc1cccc(NCc2ccc(C[n+]3ccc(N4CCCC4)cc3)cc2)c1.[Br-]	2.91%	13.43%	8.53%	9.54%	–	–
66.2%	54.2%	7.89 µM	CN(C)c1cc[n+](Cc2ccc(-c3ccc(CNc4cccc(O)c4)cc3)cc2)cc1.[Br-]	inactive	inactive	24.4%	9.86%	–	–
20.8%	inactive	–	Nc1cccc(OCc2ccc(-c3ccc(C[n+]4ccc(N5CCCC5)cc4)cc3)cc2)c1.[Br-]	40.52%	57.24%	–	–	Toxic	Toxic
28.2%	inactive	–	Oc1cccc(NCc2ccc(-c3ccc(C[n+]4ccc(N5CCCC5)cc4)cc3)cc2)c1.[Br-]	48.52%	52.99%	–	–	Toxic	Toxic
12.9%	3.8%	–	Nc1cccc(OCc2ccc(C[n+]3ccc(N4CCCC4)cc3)cc2)c1	inactive	inactive	inactive	inactive	–	–
39.5%	inactive	–	CN(C)c1cc[n+](Cc2ccc(CCc3ccc(CNc4cccc(O)c4)cc3)cc2)cc1.[Br-]	5.56%	18.43%	73.4%	34.1%	–	–
inactive	inactive	–	Nc1cccc(OCc2ccc(CCc3ccc(C[n+]4ccc(N5CCCC5)cc4)cc3)cc2)c1.[Br-]	55.37%	76.04%	–	–	Toxic	Toxic
21.6%	inactive	–	Nc1cccc(OCc2ccc(CCCCc3ccc(C[n+]4ccc(N5CCCC5)cc4)cc3)cc2)c1.[Br-]	57.69%	83.21%	–	–	Toxic	Toxic
18%	inactive	–	Oc1cccc(NCc2ccc(CCCCc3ccc(C[n+]4ccc(N5CCCC5)cc4)cc3)cc2)c1.[Br-]	inactive	48.96%	–	–	Toxic	Toxic
13.6%	inactive	–	Oc1cccc(NCc2ccc(CCc3ccc(C[n+]4ccc(N5CCCC5)cc4)cc3)cc2)c1.[Br-]	11.19%	67.39%	–	–	Toxic	Toxic
